Measured values from publication PMC5352749, “Novel insights into biosynthesis and uptake of rhamnolipids and their precursors” (Applied Microbiology and Biotechnology, 2016).

Tests used:
RhlC = biological target: T1, RhlC (Pseudomonas aeruginosa, UniProt Q9I4K5); assay: HPLC-UV of di-rhamnolipids formed by recombinant P. putida fed mono-rhamnolipids; type: cell-based; conditions: mono-rhamnolipid conditioned LB medium (congener mixture, C10-C10 predominant and quantified); 30 °C, 24 h; cellular dTDP-L-rhamnose as donor
T1 construct: full-length untagged gene in pVLT33 (native RBS), expressed alone in P. putida KT2440

RhlB = biological target: T2, RhlB (Pseudomonas aeruginosa, UniProt Q9HYD1); assay: HPLC-UV of mono-rhamnolipids formed by recombinant P. putida fed HAA; type: cell-based; conditions: HAA-containing conditioned LB medium (congener mixture, C10-C10 quantified); 30 °C, 24 h; cellular dTDP-L-rhamnose as donor
T2 construct: full-length untagged gene in pVLT33 (native RBS), expressed alone in P. putida KT2440
T2 sequence (Q9HYD1 entry or part of it): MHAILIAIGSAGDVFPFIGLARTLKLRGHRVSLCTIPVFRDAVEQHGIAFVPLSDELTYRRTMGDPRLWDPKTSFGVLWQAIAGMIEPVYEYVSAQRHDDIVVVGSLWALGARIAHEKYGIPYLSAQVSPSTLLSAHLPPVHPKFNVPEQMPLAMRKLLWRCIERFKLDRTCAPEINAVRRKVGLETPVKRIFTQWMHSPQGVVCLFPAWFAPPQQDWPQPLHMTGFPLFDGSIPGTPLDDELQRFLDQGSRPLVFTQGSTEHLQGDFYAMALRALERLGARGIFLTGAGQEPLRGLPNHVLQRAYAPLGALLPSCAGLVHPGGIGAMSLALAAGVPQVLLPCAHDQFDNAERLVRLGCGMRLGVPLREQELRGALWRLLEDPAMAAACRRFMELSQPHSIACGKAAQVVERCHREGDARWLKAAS

T1 sequence (Q9I4K5 entry or part of it): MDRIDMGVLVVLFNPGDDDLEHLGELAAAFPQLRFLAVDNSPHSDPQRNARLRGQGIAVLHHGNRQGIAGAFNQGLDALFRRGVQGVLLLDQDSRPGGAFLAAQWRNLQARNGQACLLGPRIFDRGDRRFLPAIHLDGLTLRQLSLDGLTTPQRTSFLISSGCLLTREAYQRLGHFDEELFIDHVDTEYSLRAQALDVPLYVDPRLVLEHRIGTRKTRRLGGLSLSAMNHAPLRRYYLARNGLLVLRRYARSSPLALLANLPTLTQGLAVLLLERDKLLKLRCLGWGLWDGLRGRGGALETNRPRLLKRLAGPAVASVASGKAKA

Row | Compound | HPLC-UV of di-rhamnolipids formed by recombinant P. putida fed mono-rhamnolipids (RhlC) | HPLC-UV of mono-rhamnolipids formed by recombinant P. putida fed HAA (RhlB)
1 | CCCCCCC[C@H](CC(=O)O)OC(=O)C[C@@H](CCCCCCC)O[C@@H]1O[C@@H](C)[C@H](O)[C@@H](O)[C@H]1O [Rha-C10-C10] | extracellularly provided mono-rhamnolipids were converted to di-rhamnolipids by RhlC in recombinant P. putida | 
2 | CCCCCCCC(O)CC(=O)OC(CCCCCCC)CC(=O)O (centres unmarked) [C10-C10 (HAA)] |  | HAAs synthesized by P. putida and provided in the form of the conditioned medium serve
